Experimental data: patent US20260158009A1 (GENZYME CORPORATION, priority 2023, published 2026)

Key:
U937 cells = assay: Cellular assay in U937 cells: activity of RIPK1 inhibitors on TNFα/zVAD.fmk-induced cell death (necroptosis), CellTiter 96 AQueous (MTS) readout; type: cell-based; details: Homo sapiens, U-937
Source text: Upon TNF-Receptor I ligation, Ser/Thr kinase RIPK1 is recruited to a transient receptor complex 1. Upon modification of RIPK1 which promotes activation of RIPK1, complex IIb can form, that involves recruitment of RIPK3 and MLKL (mixed lineage-kinase domain-like protein) which then translocates from the cytosol to the plasma membrane to execute cell death (Cai, Z. et al, Nat. Cell Biol. (2014) 16:55-65).
Cell death was quantified in 96 well plates by determination of the amount of live cell using a CellTiter 96 AQueous reagent (Promega), a calorimetric method to measure the number of live cells by reducing tetrazolium compound [3-(4,5-dimethylthiazol-2-yl)-5-(3-carboxymethoxyphenyl)-2-(4-sulfophenyl)-2H-tetrazolium, inner salt; MTS] into formazan. Absorbance of formazan was read at 490 nm. The inhibitory activity of the test compound was quantified in a concentration response curve (CRC) experiment.
Compounds were obtained as 10 mM stock solutions and were diluted 1 to 10 volumes with DMSO to yield a 1 mM solution. From this solution 2 μl were diluted with 998 μl growth medium. 100 μl of 2 μM compound solution was further diluted sequentially with a dilution factor of 2.5 by adding 150 μl growth medium. A total of 10 concentrations were tested ranging from 10 μM to 0.26 nM or from 1 μM to 0.07 nM.
U937 cells were cultured in RPMI1640 Glutamax and 10% heat inactivated FBS. 50 μl cell suspension containing 1×10^6 cells/ml supplemented with 50 μM zVAD.fmk (Benzyloxycarbonyl-Val-Ala-Asp (OMe) fluoromethylketone) and 100 ng/ml recombinant human TNF[…] were dispensed in each well of a 96-well plate. 50 μl of compound dilutions (described in Cellular assay in U937 cells) were added and the cell suspension incubated overnight (18 to 24 hrs) at 37° C., 5% CO2 in a humidified atmosphere (95% rH). High (no compound) and low control (no TNF[…], zVAD.fmk) were tested with 7 replicates; all compound concentrations were tested in duplicates on each experimental plate.
CellTiter 96 Aqueous reagent was mixed (100 μl PMS (phenazine methosulfate) solution/2 ml MTS (3-(4,5-[…])-5-(3-carboxymethoxyphenyl)-2-(4-sulfophenyl)-2H-tetrazolium, inner salt) solution) and 20 μl were added per well. After 4 hrs incubation at 37° C. (5% CO2 95% rH) optical density was measured at 490 nm on a microplate reader (Tecan Infinite M1000).
The % inhibition is expressed as percentage of the maximal inhibition value obtained in the absence of TNFα/zVAD.fmc.

[1] = target: T1, hRIPK1 (aa 1-375) fusion protein (Homo sapiens, UniProt Q13546); assay: ADP-Glo kinase assay: catalytic activity of RIPK1 (autophosphorylation, conversion of ATP to ADP); type: biochemical
T1 construct: hRIPK1 (aa 1-375) fusion protein
T1 sequence (Q13546 1-375): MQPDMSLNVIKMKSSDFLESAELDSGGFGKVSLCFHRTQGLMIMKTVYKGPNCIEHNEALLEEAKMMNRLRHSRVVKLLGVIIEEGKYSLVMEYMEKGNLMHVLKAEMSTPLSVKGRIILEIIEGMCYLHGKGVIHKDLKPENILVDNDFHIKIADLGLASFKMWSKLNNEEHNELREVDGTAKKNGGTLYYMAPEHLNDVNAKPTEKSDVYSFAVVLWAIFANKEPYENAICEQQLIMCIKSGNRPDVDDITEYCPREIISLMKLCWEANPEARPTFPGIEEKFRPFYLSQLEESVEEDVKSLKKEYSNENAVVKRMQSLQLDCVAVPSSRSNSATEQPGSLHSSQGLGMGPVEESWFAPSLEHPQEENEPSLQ
Procedure: The catalytic activity of RIPK1 was measured by monitoring the conversion of Adenosine triphosphate (ATP) to Adenosine diphosphate (ADP) due to autophosphorylation using an ADP-Glo kinase kit (Promega, catalog no. V9104).
In detail, 2 μl recombinantly produced hRIPK1 (aa 1-375) fusion protein (end concentration 3.6 μg/ml) and 2 μl compound (end concentration 33300-1.69 nM; DMSO end concentration 1%) were incubated for 30 minutes at room temperature and then 2 μl ATP (ADP Glo kit, end concentration 50 μM) were added. After another 240 minutes incubation at room temperature, 5 μl Promega ADP-Glo reagent I was added to quench the reaction and deplete unconsumed ATP. After an incubation period of 30 minutes, 10 μl Promega ADP-Glo detection reagent II was added resulting in conversion of ADP to ATP, which generates a light-reaction between luciferase and luciferin. Luminescence was quantified after 30 minutes with a Pherastar FS (BMG LABTECH, Ortenberg).
The adjustment was obtained by nonlinear regression using the Levenberg Marquardt algorithm.

| Structure (SMILES) | IC50 (U937 cells) [µM] | IC50 [1] [µM] |
| --- | --- | --- |
| Cc1nn(C[C@H]2CC[C@H](C(=O)N3OCC[C@H]3c3cc(F)cc(C#N)c3)CC2)c2ccccc12 [compound 61, trans-3-fluoro-5-((S)-2-(4-((3-methyl-1H-indazol-1-yl)methyl)cyclohexane-1-carbonyl)isoxazolidin-3-yl)benzonitrile] | 0.011 | 0.023 |
| Cc1c2ccccc2nn1C[C@H]1CC[C@H](C(=O)N2OCC[C@H]2c2cc(F)cc(C#N)c2)CC1 [compound 63, trans-3-fluoro-5-((S)-2-(4-((3-methyl-2H-indazol-2-yl)methyl)cyclohexane-1-carbonyl)isoxazolidin-3-yl)benzonitrile] | 0.055 | 0.027 |
| NC(=O)c1cc(F)c2ncn(C[C@H]3CC[C@H](C(=O)N4OCC[C@H]4c4cc(F)cc(F)c4)CC3)c2c1 [compound 81, trans-1-((4-((S)-3-(3,5-difluorophenyl)isoxazolidine-2-carbonyl)cyclohexyl)methyl)-4-fluoro-1H-benzo[d]imidazole-6-carboxamide] | 0.166 | 0.033 |
| Cc1ncn(C[C@H]2CC[C@H](C(=O)N3OCC[C@H]3c3cc(F)cc(C#N)c3)CC2)c1C#N [compound 88, trans-1-((4-((S)-3-(3-cyano-5-fluorophenyl)isoxazolidine-2-carbonyl)cyclohexyl)methyl)-4-methyl-1H-imidazole-5-carbonitrile] | 0.157 | 0.052 |
| Cc1ncc(C[C@H]2CC[C@H](C(=O)N3OCC[C@H]3c3ccc(F)c(F)c3)CC2)cn1 [compound 309, trans-[(3S)-3-(3,4-difluorophenyl)isoxazolidin-2-yl]-[4-[(2-methylpyrimidin-5-yl)methyl]cyclohexyl]methanone] | 0.05 | 0.015 |
| N#Cc1cc(F)cc([C@@H]2CCON2C(=O)[C@H]2CC[C@H](Cc3cncc(F)c3)CC2)c1 [compound 148, trans-3-fluoro-5-[(3S)-2-[4-[(5-fluoro-3-pyridyl)methyl]cyclohexanecarbonyl]isoxazolidin-3-yl]benzonitrile] | 0.004 | 0.018 |
| N#Cc1cc(F)cc([C@@H]2CCON2C(=O)[C@H]2CC[C@H](Cn3ncc4cc(F)c(C#N)cc43)CC2)c1 [compound 87, trans-1-((4-((S)-3-(3-cyano-5-fluorophenyl)isoxazolidine-2-carbonyl)cyclohexyl)methyl)-5-fluoro-1H-indazole-6-carbonitrile] | 0.003 | 0.018 |
| Cc1cc([C@@H]2CCON2C(=O)[C@H]2CC[C@H](Cn3ncc4ccc(C#N)cc43)CC2)co1 [compound 43, trans-1-((4-((S)-3-(5-methylfuran-3-yl)isoxazolidine-2-carbonyl)cyclohexyl)methyl)-1H-indazole-6-carbonitrile] | 0.001 | 0.018 |
| Cc1ncc(C[C@H]2CC[C@H](C(=O)N3OCC[C@H]3c3cc(F)c(C)c(C#N)c3)CC2)cc1C#N [compound 286, trans-5-[[4-[(3S)-3-(3-cyano-5-fluoro-4-methyl-phenyl)isoxazolidine-2-carbonyl]cyclohexyl]methyl]-2-methyl-pyridine-3-carbonitrile] | 0.001 | 0.001 |
| COc1cncc([C@@H]2CCON2C(=O)[C@H]2CC[C@H](Cn3cc4ccc(C#N)cc4n3)CC2)n1 [compound 189, trans-2-[[4-[(3S)-3-(6-methoxypyrazin-2-yl)isoxazolidine-2-carbonyl]cyclohexyl]methyl]indazole-6-carbonitrile] | 0.623 | 0.138 |
| Cc1c(C#N)cncc1C[C@H]1CC[C@H](C(=O)N2OCC[C@H]2c2cc(F)cc(C#N)c2)CC1 [compound 276, trans-5-[[4-[(3S)-3-(3-cyano-5-fluoro-phenyl)isoxazolidine-2-carbonyl]cyclohexyl]methyl]-4-methyl-pyridine-3-carbonitrile] | 0.009 | 0.02 |
| Cc1c(C#N)ncn1C[C@H]1CC[C@H](C(=O)N2OCC[C@H]2c2cc(F)cc(C#N)c2)CC1 [compound 90, trans-1-((4-((S)-3-(3-cyano-5-fluorophenyl)isoxazolidine-2-carbonyl)cyclohexyl)methyl)-5-methyl-1H-imidazole-4-carbonitrile] | 0.147 | 0.075 |
| NC(=O)c1ccc2c(ccn2C[C@H]2CC[C@H](C(=O)N3OCC[C@H]3c3cnccn3)CC2)c1 [compound 251, trans-1-[[4-[(3S)-3-pyrazin-2-ylisoxazolidine-2-carbonyl]cyclohexyl]methyl]indole-5-carboxamide] | 0.017 | 0.008 |
| Cc1ccc([C@@H]2CCON2C(=O)[C@H]2CC[C@H](Cc3cc(-n4ccnc4C)ncn3)CC2)cc1 [compound 136, trans-[4-[[6-(2-methylimidazol-1-yl)pyrimidin-4-yl]methyl]cyclohexyl]-[(3S)-3-(p-tolyl)isoxazolidin-2-yl]methanone] | 0.026 | 0.026 |
| COc1cc(C[C@H]2CC[C@H](C(=O)N3OCC[C@H]3c3cnc(C)c(F)c3)CC2)cn2nc(C)nc12 [compound 342, trans-[(3S)-3-(5-fluoro-6-methylpyridin-3-yl)-1,2-oxazolidin-2-yl]-[4-[(8-methoxy-2-methyl-[1,2,4]triazolo[1,5-a]pyridin-6-yl)methyl]cyclohexyl]methanone] | 0.008 | 0.026 |
| Cc1cc(C[C@H]2CC[C@H](C(=O)N3OCC[C@H]3c3cnccn3)CC2)c(Cl)cn1 [compound 396, trans-[4-[(5-chloro-2-methylpyridin-4-yl)methyl]cyclohexyl]-[(3S)-3-pyrazin-2-yl-1,2-oxazolidin-2-yl]methanone] | 0.004 | 0.014 |
| COc1cc(CC2CCC(C(=O)N3OCC[C@H]3c3cnccn3)CC2)cn2nc(C)nc12 (stereo partly drawn) [compound 314, [4-[(8-methoxy-2-methyl-[1,2,4]triazolo[1,5-a]pyridin-6-yl)methyl]cyclohexyl]-[(3S)-3-pyrazin-2-yl-1,2-oxazolidin-2-yl]methanone] |  | 0.035 |
| COc1cc(C[C@H]2CC[C@H](C(=O)N3OCC[C@H]3c3csc(C)n3)CC2)cn2nc(C)nc12 [compound 367, trans-[4-(8-Methoxy-2-methyl-[1,2,4]triazolo[1,5-a]pyridin-6-ylmethyl)-cyclohexyl]-[(S)-3-(2-methyl-thiazol-4-yl)-isoxazolidin-2-yl]-methanone] |  | 0.094 |
| Cc1cnc([C@@H]2CCON2C(=O)[C@H]2CC[C@H](Cc3cnc4c(C)nn(C)c4c3)CC2)cn1 [compound 410, [4-[(1,3-dimethylpyrazolo[4,3-b]pyridin-6-yl)methyl]cyclohexyl]-[(3S)-3-(5-methylpyrazin-2-yl)-1,2-oxazolidin-2-yl]methanone] |  | 0.08 |
| N#Cc1cc(F)cc([C@@H]2CCON2C(=O)[C@H]2CC[C@H](Cc3ccc(F)c(C#N)c3)CC2)c1 [compound 244, trans-5-[[4-[(3S)-3-(3-cyano-5-fluoro-phenyl)isoxazolidine-2-carbonyl]cyclohexyl]methyl]-2-fluoro-benzonitrile] |  | 0.02 |
